Measurements taken from ChEMBL document CHEMBL1148929, “Phytochemical studies on Stemona burkillii prain: two new dihydrostemofoline alkaloids” (J Nat Prod, 2004).

Key:
[1] = test system: Cladosporium cladosporioides; assay: Antifungal activity against Cladosporium cladosporioides assessed as inhibition of spore germination; format: functional, organism-based
Artemia = assay: Toxicity to brine shrimp; format: organism-based; conditions: in vivo

| SMILES | EC50 [1] [ppm] | LC50 (Artemia) [ppm] |
| --- | --- | --- |
| CCCC[C@@]12C3CCN1[C@H]1C[C@H]2O[C@@]32O/C(=C3\OC(=O)C(C)=C3OC)[C@@H](C)[C@H]12 [STEMOFOLINE] | > 219 | > 33 |
| CC[C@H](O)C[C@@]12[C@@H]3C[C@H]4[C@H]5[C@H](C)/C(=C6/OC(=O)C(C)=C6OC)O[C@]5(O3)[C@H]1CCN42 [2'-HYDROXYSTEMOFOLINE] | > 219 | > 33 |
